In patent US8691805B2, “Azetidinyl diamides as monoacylglycerol lipase inhibitors” (Janssen Pharmaceutica NV, priority 2009, dated 2014):

Key:
[1] = biological target: T1, MGL in rat brain homogenate (Rattus norvegicus, UniProt Q8R431); assay: 2-AG accumulation assay in rat brain homogenate; format: biochemical; conditions: 2-AG accumulation as percent of vehicle; for Rat Brain 2AG % VehCntrl (%) @10 μM: compound 10 μM
T1 construct: one g rat brain was homogenized; from tissue; host or cells: rat brain homogenate
T1 sequence (Q8R431 1-303): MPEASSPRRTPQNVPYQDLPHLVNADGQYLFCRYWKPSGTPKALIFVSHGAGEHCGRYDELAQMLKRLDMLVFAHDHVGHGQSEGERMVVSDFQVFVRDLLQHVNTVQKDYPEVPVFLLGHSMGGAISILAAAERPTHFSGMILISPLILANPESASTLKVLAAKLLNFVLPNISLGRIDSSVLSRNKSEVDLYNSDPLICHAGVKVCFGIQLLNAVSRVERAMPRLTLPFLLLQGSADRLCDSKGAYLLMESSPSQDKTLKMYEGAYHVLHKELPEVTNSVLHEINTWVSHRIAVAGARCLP

mutant MGL = biological target: T2, mutant MGL (Homo sapiens, UniProt Q99685, L169S/L176S); assay: MGL ThermoFluor assay - mutant; conditions: read-out: MGL mutant ThermoFluor Kd, ThermoFluor thermal shift
T2 sequence (Q99685 1-303 L169S/L176S): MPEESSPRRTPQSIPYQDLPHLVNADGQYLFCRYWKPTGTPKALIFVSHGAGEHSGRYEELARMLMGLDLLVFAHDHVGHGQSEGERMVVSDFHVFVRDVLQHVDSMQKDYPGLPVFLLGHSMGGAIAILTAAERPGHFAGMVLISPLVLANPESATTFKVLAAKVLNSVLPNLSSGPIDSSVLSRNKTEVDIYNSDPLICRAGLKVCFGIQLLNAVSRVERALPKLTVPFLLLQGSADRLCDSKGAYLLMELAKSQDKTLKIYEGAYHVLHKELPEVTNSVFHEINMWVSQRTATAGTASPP
Protocol: The ThermoFluor (TF) assay is a 384-well plate-based binding assay that measures thermal stability of proteins^1,2. […] TF dye used in all experiments was 1,8-ANS (Invitrogen: A-47). Final TF assay conditions used for MGL studies were 0.07 mg/ml of mutant MGL, 100 μM ANS, 200 mM NaCl, 0.001% Tween-20 in 50 mM PIPES (pH=7.0).
Screening compound plates contained 100% DMSO compound solutions at a single concentration. […] Columns 12 and 24 were used as DMSO reference and contained no compound. […] Following compound dispension, protein and dye solutions were added to achieve the final assay volume of 3 μL.
Bar-coded assay plates were robotically loaded onto a thermostatically controlled PCR-type thermal block and then heated from 40 to 90° C. degrees at a ramp-rate of 1° C./min for all experiments. Fluorescence was measured by continuous illumination with UV light (Hamamatsu LC6), supplied via fiber optics and filtered through a band-pass filter (380-400 nm; >6 OD cutoff). Fluorescence emission of the entire 384-well plate was detected by measuring light intensity using a CCD camera (Sensys, Roper Scientific) filtered to detect 500±25 nm, resulting in simultaneous and independent readings of all 384 wells. […]

[2] = test system: CFA-induced paw radiant heat hypersensitivity in rats; assay: CFA-induced paw radiant heat hypersensitivity; format: in vivo; conditions: rat, 30 mg/kg p.o., HPβCD, group mean values, last time point 180 or 300 min
Protocol: Each rat was placed in a test chamber on a warm glass surface and allowed to acclimate for approximately 10 min. A radiant thermal stimulus (beam of light) was then focused through the glass onto the plantar surface of each hind paw in turn. The thermal stimulus was automatically shut off by a photoelectric relay when the paw was moved or when the cut-off time was reached (20 sec for radiant heat at ˜5 amps). An initial (baseline) response latency to the thermal stimulus was recorded for each animal prior to the injection of complete Freund's adjuvant (CFA). 24 h following intraplantar CFA injection, the response latency of the animal to the thermal stimulus was then re-evaluated and compared to the animal's baseline response time. […] Post-compound treatment withdrawal latencies were assessed at fixed time intervals, typically 30, 60, 120, 180, and 300 min.
The percent reversal (% R) of hypersensitivity was calculated in one of two different ways: 1) using group mean values or 2) using individual animal values. […]
Method 1. For all compounds, the % R of hypersensitivity was calculated using the mean value for groups of animals at each time point according to the following formula: % reversal=[(group treatment response−group CFA response)/(group baseline response−group CFA response)]×100 Results are given for the maximum % reversal observed for each compound at any time point tested. […]

[3] = test system: murine model of acute inflammation; conditions: Comelli et al. 2007; cited from earlier work

| SMILES | Rat Brain 2AG % VehCntrl (%) @10 μM [1] [%] | Method 1: peak % reversal [2] [%] | further results |
| --- | --- | --- | --- |
| O=C(c1nccs1)N1CCN(C2CN(C(=O)[C@@H]3C[C@H]3c3ccccc3Cl)C2)CC1 (racemic) [Cpd 642] | – | – | Rat Brain 2AG % VehCntrl (%) @1 μM ([1]; compound 1 μM): 170%; Kd (mutant MGL): 499 nM |
| O=C(c1ccc(-c2ccc(O)cc2)cc1)N1CC(N2CCN(C(=O)c3nccs3)CC2)C1 [Cpd 211, 4′-({3-[(1,3-Thiazol-2-ylcarbonyl)piperazin-1-yl]azetidin-1-yl}carbonyl)biphenyl-4-ol] | 725 | – | – |
| COc1ccc(-c2ccc(C(=O)N3CC(N4CCN(C(=O)c5nccs5)CC4)C3)cc2)cc1C=O [Cpd 216, 4-Methoxy-4′-({3-[(1,3-thiazol-2-ylcarbonyl)piperazin-1-yl]azetidin-1-yl}carbonyl)biphenyl-3-carbaldehyde] | 625 | – | – |
| O=C(c1ccc(-c2cccc(C(F)(F)F)c2)c(Cl)c1)N1CC(N2CCN(C(=O)c3cscn3)CC2)C1 [Cpd 1102] | – | 38 | – |
| O=C(c1ccc2c(ccn2-c2ccc(C(F)(F)F)cc2)c1)N1CC(N2CCN(C(=O)c3cscn3)CC2)C1 [Cpd 1359, 5-({3-[4-(1,3-Thiazol-4-ylcarbonyl)piperazin-1-yl]azetidin-1-yl}carbonyl)-1-[4-(trifruoromethyl)phenyl]-1 H-indole] | – | 5.1 | – |
| O=C(Nc1cccc(-c2ccccc2)c1)OC1CCCCC1 [URB602] | – | – | antinociceptive effect [3]: showed an antinociceptive effect |
